For this series the following is noted: 101.33 kPa, Liquid, Vibrating tube method.

Numbers after ± are expanded uncertainties.

In the NIST ThermoML archive (doi:10.1021/acs.jced.6b00833) one finds mass density data, which are given here for five molecules.

The term mass density denotes the mass of a sample divided by its volume. In the case of `CCCC[N+](C)(C)C.O=S(=O)([N-]S(=O)(=O)C(F)(F)F)C(F)(F)F` [butyltrimethylammonium bis(trifluoromethylsulfonyl)imide], the mass density (298.48 K) is on record as 1392.89 ± 8.4 kg/m3.

Turning to `CCCC[P+](C)(CCCC)CCCC.O=C[O-]` [tributylmethylphosphonium formate], the mass density runs as follows: (298.15 K) 950.7 ± 5.9 kg/m3; (303.15 K) 947.9 ± 5.9 kg/m3; (308.15 K) 945 ± 5.9 kg/m3; (313.15 K) 942.1 ± 5.9 kg/m3; (318.15 K) 939.2 ± 5.8 kg/m3; (323.15 K) 936.3 ± 5.8 kg/m3. Besides, the mass density (328.15 K) is 933.5 ± 5.8 kg/m3.

On to `CCC[N+]1(C)CCCC1.N#CN=C=[N-]` [1-methyl-1-propylpyrrolidinium dicyanamide], for which the mass density was determined as 1026.76 ± 6.2 kg/m3 (298.15 K); 1023.9 ± 6.2 kg/m3 (303.15 K); 1021.05 ± 6.2 kg/m3 (308.15 K); 1018.22 ± 6.2 kg/m3 (313.15 K); 1015.41 ± 6.1 kg/m3 (318.15 K); 1012.62 ± 6.1 kg/m3 (323.15 K). For the same molecule, the mass density (328.15 K) turned out to be 1009.85 ± 6.1 kg/m3; the mass density (333.15 K) is 1007.08 ± 6.1 kg/m3; the mass density (338.15 K) is reported as 1004.33 ± 6.1 kg/m3; the mass density (343.15 K) stood at 1001.6 ± 6.1 kg/m3; the mass density (348.15 K) was found to be 998.88 ± 6 kg/m3; the mass density (353.15 K) was found to be 996.18 ± 6 kg/m3. Besides, the mass density runs as follows: (358.15 K) 993.49 ± 6 kg/m3; (363.15 K) 990.81 ± 6 kg/m3.

Turning to `CC(=O)[O-].CCn1cc[n+](C)c1` [1-ethyl-3-methylimidazolium acetate], the mass density by setting is: (298.15 K) 1097.83 ± 6.9 kg/m3; (303.15 K) 1094.72 ± 6.9 kg/m3; (308.15 K) 1091.64 ± 6.9 kg/m3; (313.15 K) 1088.57 ± 6.8 kg/m3; (318.15 K) 1085.52 ± 6.8 kg/m3; (323.15 K) 1082.49 ± 6.8 kg/m3. Further, the mass density by setting is: (328.15 K) 1079.48 ± 6.8 kg/m3; (333.15 K) 1076.48 ± 6.8 kg/m3; (338.15 K) 1073.49 ± 6.7 kg/m3; (343.15 K) 1070.51 ± 6.7 kg/m3; (348.15 K) 1067.55 ± 6.7 kg/m3; (353.15 K) 1064.6 ± 6.7 kg/m3. Also, the mass density is, setting by setting: (358.15 K) 1061.66 ± 6.7 kg/m3; (363.15 K) 1058.74 ± 6.6 kg/m3.

As for `C[S+](C)[O-]` [dimethyl sulfoxide], the mass density (293.15 K) is 1100.42 ± 6.6 kg/m3; the mass density (298.15 K) amounted to 1095.41 ± 6.6 kg/m3; the mass density (303.15 K) is 1090.38 ± 6.5 kg/m3; the mass density (308.15 K) was 1085.36 ± 6.5 kg/m3; the mass density (313.15 K) stood at 1080.34 ± 6.5 kg/m3; the mass density (318.15 K) is on record as 1075.32 ± 6.5 kg/m3. Further, the mass density by setting is: (323.15 K) 1070.31 ± 6.4 kg/m3; (328.15 K) 1065.29 ± 6.4 kg/m3; (333.15 K) 1060.28 ± 6.4 kg/m3; (338.15 K) 1055.26 ± 6.3 kg/m3; (343.15 K) 1050.23 ± 6.3 kg/m3; (348.15 K) 1045.21 ± 6.3 kg/m3. Further, the mass density (353.15 K) came out at 1040.19 ± 6.2 kg/m3, the mass density (358.15 K) is recorded as 1035.15 ± 6.2 kg/m3 and the mass density (363.15 K) turned out to be 1030.12 ± 6.2 kg/m3.
